Measurements as given in US10669238B2, “Irreversible bruton's tyrosine kinase inhibitor” (HEFEI INSTITUTES OF PHYSICAL SCIENCE, CHINESE ACADEMY OF …, priority 2016, dated 2020).

What was measured:
leukemia cell OCI-AML-3 = test: Cell proliferation (Cell Titer-Glo), OCI-AML-3; type: cell-based; conditions: Homo sapiens; OCI-AML-3, 72 hours; read-out: Effects on cell proliferation (GI50)
Method: (§1) The selectivity of Compound 1 in inhibiting the proliferation of cancer cells was further evaluated by testing the effect of Btk inhibitors on the growth of cancer cells. […]
(§2) In this example different concentrations (0.000508 μM, 0.00152 μM, 0.00457 μM, 0.0137 μM, 0.0411 μM, 0.123 μM, 0.370 μM, 1.11 μM, 3.33 μM, 10 μM) of Compound 1 and Compound 6 were respectively added into the above cells which were then cultured for 72 hours. The number of viable cells was determined via quantitative determination of ATP in living cells by using Cell Titer-Glo® (Promega, the USA) Chemical Luminescent Cell Viability Assay kit.

BTK protein kinase = BTK protein kinase (Homo sapiens, UniProt Q06187); test: In vitro enzymatic activity against BTK (ADP-Glo); type: biochemical; conditions: for IC50: compound with BTK 4 hours at room temperature, ATP 10 μM, 37° C. 1 hour, values in nM
Outline: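 BTK (1.5 ng/μL enzyme solution) was preincubated with compound (final 10 μM to 0.003 μM) for 4 h at room temperature. Reaction ran 1 h at 37 °C with 10 μM ATP and 0.2 μg/μL poly(Glu,Tyr) 4:1 (final). ADP formed was measured by ADP-Glo luminescence, and IC50 was obtained by curve plotting.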

[1] = tested on: B-cell lymphoma cells U2932; test: Cell proliferation (Cell Titer-Glo), U2932; type: cell-based; conditions: Homo sapiens; U2932, 72 hours; read-out: Effects on cell proliferation (GI50)
Method: as §1, §2

[2] = tested on: bone marrow plasma cell tumor cells AMO-1; test: Cell proliferation (Cell Titer-Glo), AMO-1; type: cell-based; conditions: Homo sapiens, AMO1; AMO-1, 72 hours; read-out: Effects on cell proliferation (GI50)
Method: as §1, §2

[3] = tested on: colon cancer cells HCT116; test: Cell proliferation (Cell Titer-Glo), HCT116; type: cell-based; conditions: Homo sapiens, HCT-116; HCT116, 72 hours; read-out: Effects on cell proliferation (GI50)
Method: as §1, §2

[4] = target: T1, TEL-EGFR/T790-BaF3 cells (stably expressing TEL-EGFR-C797S point mutation kinase) (Homo sapiens, UniProt P00533, C797S); test: Cell proliferation (Cell Titer-Glo), BaF3-tel-EGFR-C797S; type: cell-based; conditions: BaF3-tel-EGFR-C797S (mouse BaF3 cells), 72 hours; read-out: Effects on cell proliferation (GI50)
T1 construct: expressed in transfected cells; host or cells: mouse BaF3 cells, retroviral MSCV-Puro
Method: as §1, §2

mouse pro-B cells BaF3 = test: Cell proliferation (Cell Titer-Glo), WT-BaF3; type: cell-based; conditions: WT-BaF3, 72 hours, read-out: Effects on cell proliferation (GI50)
Method: as §1, §2

[5] = tested on: diffuse large B-cell lymphoma cell lines TMD8; test: Cell proliferation (Cell Titer-Glo), TMD8; type: cell-based; conditions: Homo sapiens, TMD8, 72 h, read-out: Effects on cell proliferation (GI50)
Text: The following cells were adopted in the example: acute myelocytic leukemia cell strains (acute myelocytic leukemia, AML) HL-60, B-lymphoma cell Ramos, colon cancer cells HCT116, leukemic cells K562, B-cell lymphoma cells U2932, diffuse large B-cell lymphoma cell line OCI-LY10, diffuse histiocytic lymphoma cells SU-DHL-2, diffuse large B-cell lymphoma cell lines TMD8, leukemia cell OCI-AML-3, acute promyelocytic leukemia cell line NB-4 (Lu+), MDS-RAEB (myelodysplastic syndrome—excessive blasts) cell lines SKM-1, human leukocyte leukemia cells HEL, acute myeloid leukemia cell lines (acute myelocytic leukemia, AML) U937, acute myeloid leukemia cell lines (acute myelocytic leukemia, AML) MOLM14, acute myeloid leukemia cell lines (acute myelocytic leukemia, AML) MOLM13, acute myeloid leukemia cell lines (acute myelocytic leukemia, AML) M-07e, acute myeloid leukemia cell lines (acute myelocytic leukemia, AML) MV4-11, acute myeloid leukemia cell lines (acute myelocytic leukemia, AML) MOLM16, diffuse large B-cell lymphoma cell lines Pfeiffer, multiple myeloma cell lines (multiple myeloma) RPM18226, bone marrow plasma cell tumor cells AMO-1, mouse pro-B cells BaF3, all purchased from ATCC.

[6] = tested on: human leukocyte leukemia cells HEL; test: Cell proliferation (Cell Titer-Glo), HEL; type: cell-based; conditions: 72 hours, read-out: Effects on cell proliferation (GI50)
Method: as §1, §2

[7] = target: T2, TEL-JAK3-BaF3 cells (stably expressing TEL-JAK3 activated kinase) (Homo sapiens, UniProt P52333); test: Cell proliferation (Cell Titer-Glo), BaF3-tel-JAK3; type: cell-based; conditions: BaF3-tel-JAK3 (mouse BaF3 cells), 72 hours; read-out: Effects on cell proliferation (GI50)
T2 construct: expressed in transfected cells; host or cells: mouse BaF3 cells, retroviral MSCV-Puro; the other entry of the earlier key: ETV6 (P41212, Transcription factor ETV6)
Method: as §1, §2

BTK protein kinase, sequence (Q06187 whole entry): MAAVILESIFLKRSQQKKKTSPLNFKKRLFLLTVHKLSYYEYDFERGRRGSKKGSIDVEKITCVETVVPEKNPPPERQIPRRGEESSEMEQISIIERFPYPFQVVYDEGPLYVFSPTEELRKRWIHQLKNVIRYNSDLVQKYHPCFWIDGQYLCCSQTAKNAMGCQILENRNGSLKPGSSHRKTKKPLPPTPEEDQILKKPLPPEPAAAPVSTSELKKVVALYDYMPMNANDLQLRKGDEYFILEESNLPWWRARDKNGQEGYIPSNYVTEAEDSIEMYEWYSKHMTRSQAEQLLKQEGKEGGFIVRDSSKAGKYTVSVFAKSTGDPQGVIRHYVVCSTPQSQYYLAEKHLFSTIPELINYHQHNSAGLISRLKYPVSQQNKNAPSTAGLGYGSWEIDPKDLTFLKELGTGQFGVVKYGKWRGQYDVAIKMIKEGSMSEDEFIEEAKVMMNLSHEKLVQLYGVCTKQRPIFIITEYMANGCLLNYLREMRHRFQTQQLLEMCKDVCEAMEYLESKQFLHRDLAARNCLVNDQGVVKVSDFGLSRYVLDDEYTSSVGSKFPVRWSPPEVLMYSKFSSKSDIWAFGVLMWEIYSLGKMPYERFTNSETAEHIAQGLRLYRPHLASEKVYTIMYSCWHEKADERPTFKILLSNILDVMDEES
T2 sequence (P52333 822-1111 limits assumed): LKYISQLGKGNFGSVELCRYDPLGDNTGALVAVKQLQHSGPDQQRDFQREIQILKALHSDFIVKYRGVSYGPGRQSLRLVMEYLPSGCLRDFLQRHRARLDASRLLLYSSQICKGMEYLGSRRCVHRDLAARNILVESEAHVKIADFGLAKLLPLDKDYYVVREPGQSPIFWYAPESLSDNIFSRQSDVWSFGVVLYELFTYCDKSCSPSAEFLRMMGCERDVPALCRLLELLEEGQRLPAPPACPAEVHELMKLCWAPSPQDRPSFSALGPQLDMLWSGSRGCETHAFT
T1 sequence (P00533 712-979 C797S limits assumed): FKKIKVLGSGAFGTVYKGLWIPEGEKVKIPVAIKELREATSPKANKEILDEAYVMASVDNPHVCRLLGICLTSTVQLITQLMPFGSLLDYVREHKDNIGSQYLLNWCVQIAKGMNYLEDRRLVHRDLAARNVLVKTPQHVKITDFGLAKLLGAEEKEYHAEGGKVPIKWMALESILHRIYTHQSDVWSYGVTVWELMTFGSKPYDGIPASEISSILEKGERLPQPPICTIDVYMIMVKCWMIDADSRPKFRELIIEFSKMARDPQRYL

| GI50 (leukemia cell OCI-AML-3) [µM] | inhibitory effects on BTK protein (BTK protein kinase; ADP-Glo assay, in words) | IC50 (BTK protein kinase) [nM] | GI50 [1] [µM] | GI50 [2] [µM] | GI50 [3] [µM] | GI50 [4] [µM] | GI50 (mouse pro-B cells BaF3) [µM] | GI50 [5] [µM] | GI50 [6] [µM] | GI50 [7] [µM] | Structure (SMILES) |
| --- | --- | --- | --- | --- | --- | --- | --- | --- | --- | --- | --- |
| 9.5 | relatively strong inhibitory effects | 207 | > 10 | 8 | > 10 | 1.8 | 6.3 | 0.75 | > 10 | 4.6 | CCC(=O)Nc1cc(Nc2cc(-c3cccc(NC(=O)c4ccc(C(C)(C)C)cc4)c3C)cn(C)c2=O)ccc1C(=O)N1CCOCC1 [Compound 6, N-(3-(5-((3-propanamide-4-(morpholin-4-carbonyl)phenyl)amino)-1-methyl-6-oxo-1,6-dihydropyridin-3-yl)-2-methylphenyl)-4-(tert-butyl)benzamide] |
| 3.8 |  | 7.09 | 2.4 | 3.4 | > 10 | 2.5 | 7.9 | 0.001 | 5.3 | 3.2 | C=CC(=O)Nc1cc(Nc2cc(-c3cccc(NC(=O)c4ccc(C(C)(C)C)cc4)c3C)cn(C)c2=O)ccc1C(=O)N1CCOCC1 [Compound 1, N-(3-(5-((3-acrylamide-4-(morpholin-4-carbonyl)phenyl)amino)-1-methyl-6-oxo-1,6-dihydropyridin-3-yl)-2-methylphenyl)-4-(tert-butyl)benzamide] |
